In patent US6849644B2, “Isoquinoline derivatives useful in the treatment of CNS disorders” (SmithKline Beecham p.l.c., priority 2000, dated 2005):
Structures can show the parent of a compound that is named as a salt.

target: T1, human cloned 5-HT6 receptors (Homo sapiens, UniProt P50406); assay: 5-HT6 receptor binding affinity (procedures outlined in WO 98/27081)
T1 construct: expressed in transfected cells
Excerpt: Compounds can be tested following the procedures outlined in WO 98/27081.

T1 sequence (P50406 whole entry): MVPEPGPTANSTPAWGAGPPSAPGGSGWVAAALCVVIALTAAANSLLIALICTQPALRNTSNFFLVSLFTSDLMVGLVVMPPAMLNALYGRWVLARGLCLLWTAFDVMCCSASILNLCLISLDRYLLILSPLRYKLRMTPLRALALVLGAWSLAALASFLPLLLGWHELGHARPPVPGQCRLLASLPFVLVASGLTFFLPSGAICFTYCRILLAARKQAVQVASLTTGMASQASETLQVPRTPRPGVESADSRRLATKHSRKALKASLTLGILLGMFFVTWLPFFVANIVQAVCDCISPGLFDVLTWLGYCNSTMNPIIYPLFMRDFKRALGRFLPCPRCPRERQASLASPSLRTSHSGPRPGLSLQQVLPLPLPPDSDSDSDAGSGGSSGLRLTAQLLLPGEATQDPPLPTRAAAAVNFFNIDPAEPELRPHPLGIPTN

Ki, 1.26 to 6.31 nM:
O=S(=O)(c1ccc2c(c1)CNCC2)n1ccc2ccccc21 [Example E1, 7-(Indole-1-sulfonyl)-1,2,3,4-tetrahydro-isoquinoline Hydrochloride]
O=S(=O)(c1ccc2c(c1)CNCC2)n1c2c(c3ccccc31)CCCC2 [Example E9, 9-(1,2,3,4-Tetrahydro-isoquinoline-7-sulfonyl)-2,3,4,9-tetrahydro-1H-carbazole]
Cc1cn(S(=O)(=O)c2ccc3c(c2)CNCC3)c2ccccc12 [Example E10, 7-(3-Methyl-indole-1-sulfonyl)-1,2,3,4-tetrahydro-isoquinoline]
O=S(=O)(c1ccc2c(c1)CNCC2)n1c(-c2ccccc2)cc2cc(F)ccc21 [Example E13, 7-(5-Fluoro-2-phenyl-indole-1-sulfonyl)-1,2,3,4-tetrahydro-isoquinoline]
O=S(=O)(c1ccc2c(c1)CNCC2)n1ccc2ccc(Cl)cc21 [Example E16, 7-(6-Chloro-indole-1-sulfonyl)-1,2,3,4-tetrahydro-isoquinoline]
O=S(=O)(c1ccc2c(c1)CNCC2)n1ccc2c(Cl)cccc21 [Example E17, 7-(4-Chloro-indole-1-sulfonyl)-1,2,3,4-tetrahydro-isoquinoline]
COc1ccc2ccn(S(=O)(=O)c3ccc4c(c3)CNCC4)c2c1 [Example E19, 7-(6-Methoxy-indole-1-sulfonyl)-1,2,3,4-tetrahydro-isoquinoline]
Cc1ccc2ccn(S(=O)(=O)c3ccc4c(c3)CNCC4)c2c1 [Example E20, 7-(6-Methyl-indole-1-sulfonyl)-1,2,3,4-tetrahydro-isoquinoline]
Cc1cccc2c1ccn2S(=O)(=O)c1ccc2c(c1)CNCC2 [Example E21, 7-(4-Methyl-indole-1-sulfonyl)-1,2,3,4-tetrahydro-isoquinoline]
O=S(=O)(c1ccc2c(c1)CNCC2)n1ccc2ccc(F)cc21 [Example E22, 7-(6-Fluoro-indole-1-sulfonyl)-1,2,3,4-tetrahydro-isoquinoline]
O=S(=O)(c1ccc2c(c1)CNCC2)n1ccc2cc(F)c(F)cc21 [Example E23, 7-(5,6-Difluoro-indole-1-sulfonyl)-1,2,3,4-tetrahydro-isoquinoline]
O=S(=O)(c1ccc2c(c1)CNCC2)n1ccc2ccc(C(F)(F)F)cc21 [Example E24, 7-(6-Trifluoromethyl-indole-1-sulfonyl)-1,2,3,4-tetrahydro-isoquinoline]
O=S(=O)(c1ccc2c(c1)CNCC2)n1c2ccccc2c2ccccc21 [Example E26, 9-(1,2,3,4-tetrahydro-isoquinoline-7-sulfonyl)-9H-carbazole]
O=S(=O)(c1ccc2c(c1)CNCC2)n1cc(-c2ccccc2)c2ccccc21 [Example E35, 7-(3-Phenyl-indole-1-sulfonyl)-1,2,3,4-tetrahydro-isoquinoline Hydrochloride]
